These are literature values, as cited in patent US20180271890A1, “Solid Pharmaceutical Composition Comprising Amorphous Sofosbuvir” (priority 2015, published 2018).

On to `CC(C)OC(=O)[C@H](C)N[P@](=O)(OC[C@H]1O[C@@H](n2ccc(=O)[nH]c2=O)[C@](C)(F)[C@@H]1O)Oc1ccccc1` [Amorphous sofosbuvir, (S)-isopropyl 2-(((S)-(((2R,3R,4R,5R)-5-(2,4-dioxo-3,4-dihydropyrimidin-1(2H)-yl)-4-fluoro-3-hydroxy-4-methyltetrahydrofuran-2-yl)methoxy)(phenoxy)phosphoryl)-amino)propanoate], for which the “relative humidity at which the substance deliquesces” value (amorphous form) is reported as “above 50%”. Regarding `CC(C)OC(=O)[C@H](C)N[P@](=O)(OC[C@H]1O[C@@H](n2ccc(=O)[nH]c2=O)[C@](C)(F)[C@@H]1O)Oc1ccccc1` [sofosbuvir, (S)-isopropyl 2-(((S)-(((2R,3R,4R,5R)-5-(2,4-dioxo-3,4-dihydropyrimidin-1(2H)-yl)-4-fluoro-3-hydroxy-4-methyltetrahydrofuran-2-yl)methoxy)(phenoxy)phosphoryl)-amino)propanoate], the “behaviour under stress conditions” value (40 °C, relative humidity 75%) is “deliquesces after a few hours”.
